Holding throughout (test): Kinase panel profiling at 1 µmol/L (MSA or IMAP), percentage inhibition
Holding throughout (format): biochemical

Experiment [1] concerns the target panel of 255 wild-type kinases (Homo sapiens, UniProt P54756). As to conditions: kinase EPHA5; 1 µmol/L single concentration; read-out: %-inhibition at 1 µmol/L, EPHA5.
Experiment [2] concerns the target panel of 255 wild-type kinases (Homo sapiens, UniProt P57059). Conditions: kinase SIK; 1 µmol/L single concentration; read-out: %-inhibition at 1 µmol/L, SIK.
Experiment [3] addresses panel of 255 wild-type kinases (Homo sapiens, UniProt P31749). Conditions: AKT1 kinase assay; 1 µmol/L single concentration; read-out: %-inhibition AKT1.
Experiment [4] addresses T1, panel of 255 wild-type kinases (Homo sapiens, UniProt Q9NRA0).
T1 sequence (Q9NRA0 1-654): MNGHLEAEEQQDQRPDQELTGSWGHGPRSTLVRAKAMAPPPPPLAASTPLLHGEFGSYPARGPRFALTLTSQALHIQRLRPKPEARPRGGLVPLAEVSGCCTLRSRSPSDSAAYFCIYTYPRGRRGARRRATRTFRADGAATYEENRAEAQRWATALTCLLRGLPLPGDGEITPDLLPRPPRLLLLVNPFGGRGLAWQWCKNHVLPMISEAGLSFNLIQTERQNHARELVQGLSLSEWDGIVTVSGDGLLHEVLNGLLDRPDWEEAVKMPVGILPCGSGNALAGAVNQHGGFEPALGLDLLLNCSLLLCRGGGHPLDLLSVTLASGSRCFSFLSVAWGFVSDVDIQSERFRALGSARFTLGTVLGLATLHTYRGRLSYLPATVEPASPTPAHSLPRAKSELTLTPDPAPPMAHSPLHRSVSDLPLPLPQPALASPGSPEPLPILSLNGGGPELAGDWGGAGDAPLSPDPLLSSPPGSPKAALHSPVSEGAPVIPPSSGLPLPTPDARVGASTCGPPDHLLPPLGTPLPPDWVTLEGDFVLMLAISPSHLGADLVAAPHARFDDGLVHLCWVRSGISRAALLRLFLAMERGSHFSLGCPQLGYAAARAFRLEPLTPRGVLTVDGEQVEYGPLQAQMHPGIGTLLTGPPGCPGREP
Conditions: kinase SPHK2; 1 µmol/L single concentration; read-out: %-inhibition at 1 µmol/L, SPHK2.

Experiment [5] has as its target T2, panel of 255 wild-type kinases (Homo sapiens, UniProt O15146).
T2 sequence (O15146 24-869): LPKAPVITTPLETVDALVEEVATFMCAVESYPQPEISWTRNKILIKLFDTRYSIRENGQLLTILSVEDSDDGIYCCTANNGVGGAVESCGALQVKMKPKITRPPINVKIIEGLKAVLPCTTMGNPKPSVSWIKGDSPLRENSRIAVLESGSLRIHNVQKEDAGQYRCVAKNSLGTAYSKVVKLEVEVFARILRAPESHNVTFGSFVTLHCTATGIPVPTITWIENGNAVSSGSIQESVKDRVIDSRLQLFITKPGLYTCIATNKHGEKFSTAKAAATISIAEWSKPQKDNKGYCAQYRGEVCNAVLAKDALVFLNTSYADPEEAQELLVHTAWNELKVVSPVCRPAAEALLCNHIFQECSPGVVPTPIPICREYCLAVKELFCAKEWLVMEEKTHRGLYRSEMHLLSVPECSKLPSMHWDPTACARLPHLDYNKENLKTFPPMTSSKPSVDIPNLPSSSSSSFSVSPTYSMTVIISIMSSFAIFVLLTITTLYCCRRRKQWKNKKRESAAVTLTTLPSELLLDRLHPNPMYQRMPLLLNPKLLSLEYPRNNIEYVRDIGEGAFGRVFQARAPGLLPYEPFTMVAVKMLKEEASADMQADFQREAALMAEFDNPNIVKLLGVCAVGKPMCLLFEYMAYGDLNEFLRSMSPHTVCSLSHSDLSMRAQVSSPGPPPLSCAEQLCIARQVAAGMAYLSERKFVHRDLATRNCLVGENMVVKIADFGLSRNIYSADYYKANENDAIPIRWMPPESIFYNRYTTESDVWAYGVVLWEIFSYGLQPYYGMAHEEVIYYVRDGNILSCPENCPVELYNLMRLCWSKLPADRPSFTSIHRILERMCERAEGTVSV
As to conditions: MUSK; 1 µmol/L single concentration; read-out: %-inhibition, MUSK.

In experiment [6] the target is panel of 255 wild-type kinases (Homo sapiens, UniProt Q96SB4). As to conditions: kinase SRPK1; 1 µmol/L single concentration; read-out: %-inhibition at 1 µmol/L, SRPK1.
Experiment [7] concerns the target panel of 255 wild-type kinases (Homo sapiens, UniProt P07947). Conditions: kinase YES; 1 µmol/L single concentration; read-out: %-inhibition at 1 µmol/L, YES.

`Cc1nc(NC(=O)N2CCC[C@H]2C(N)=O)sc1-c1ccnc(C(C)(C)C(F)(F)F)c1` [alpelisib]: the inhibition at 1 µM was 0.272% in experiment [1]; -10% in experiment [2]; -6.35% in experiment [3]; 6.5% in experiment [4]; -8% in experiment [5]; 6% in experiment [6]. Also, the inhibition at 1 µM in experiment [7] was -4%.
With `FC(F)(F)c1ccc(CNc2ccc(Cc3c[nH]c4ncc(Cl)cc34)cn2)cn1` [pexidartinib], the inhibition at 1 µM in experiment [1] was 4%; in experiment [2] it was 9%; in experiment [3], -20%; in experiment [4] it was 7%; in experiment [5], 33%; in experiment [6] it was -20%. Also, the inhibition at 1 µM in experiment [7] is 16%.
In the case of `CCc1nc(C(N)=O)c(Nc2ccc(N3CCC(N4CCN(C)CC4)CC3)c(OC)c2)nc1NC1CCOCC1` [gilteritinib], the inhibition at 1 µM in experiment [1] is 52%; in experiment [2], 59%; in experiment [3] it was -22%; in experiment [4], 9%; in experiment [5], 99%; in experiment [6] it was -8%. The inhibition at 1 µM in experiment [7] amounted to 98%.
For the compound `O=C(Nc1cnn2ccc(N3CCC[C@@H]3c3cc(F)ccc3F)nc12)N1CC[C@H](O)C1` [larotrectinib], the inhibition at 1 µM in experiment [1] is -0.0881%; in experiment [2] it was -1.7%; in experiment [3], -15%; in experiment [4], -1.56%; in experiment [5], 32%; in experiment [6], -12%. For the same compound, the inhibition at 1 µM in experiment [7] was -2.66%.
